Test results from US5157052A, “Method for inhibiting IgE production” (priority 1990, dated 1992).

Assays:
IgG3 = test: Serum IgG3 in anti-IgD stimulated mice (two site sandwich ELISA, Assay D); format: in vivo, mouse (Balb/c female)
IgE = test: Serum IgE response induced by FF1-4D5 + H∂A1 anti-IgD antibodies (ELISA, Assay A / Assay F); format: in vivo, mouse (Balb/c female); settings: for Mean IgE ± SD: 2 μg IP 4x daily days 3 and 4
In short: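 Transient IgE response induced in female Balb/c mice (10–20 weeks) by a day-0 i.v. or s.c. injection of 100 μg each of anti-IgD FF1-4D5 and H.δA1. Serum IgE measured by sandwich ELISA (B1E3 capture, biotinylated R1E4 detection, avidin-biotin-HRP/ABTS), quantified against an IgE standard curve corrected for serum dilution.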

CCCCC(C)(O)C/C=C/[C@H]1[C@H](O)CC(=O)[C@@H]1C/C=C\CCCC(=O)OC (mixture of isomers) [(±) methyl 11α,16-dihydroxy-16-methyl-9-oxoprosta-5Z,13E-dien-1-oate]
IgG3 ± SD (IgG3; 2 μg IP days 3 and 4, day 7 (control 227)): 370 ± 229 µg/mL
IgG3 ± SD (IgG3; 2 μg IP days 3 and 4, day 8 (control 519)): 882 ± 310 µg/mL
IgG3 ± SD (IgG3; 2 μg IP days 3 and 4, day 9 (control 510)): 741 ± 475 µg/mL
IgG3 ± SD (IgG3; 2 μg IP days 3 and 4, day 11 (control 465)): 687 ± 152 µg/mL
IgG3 ± SD (IgG3; 2 μg IP days 3 and 4, day -1 baseline before treatment): 70 ± 10 µg/mL
IgG3 ± SD (IgG3; 5 μg IP days 3 and 4, day 7): 464 ± 161 µg/mL
IgG3 ± SD (IgG3; 5 μg IP days 3 and 4, day 8): 640 ± 46 µg/mL
IgG3 ± SD (IgG3; 5 μg IP days 3 and 4, day 9): 649 ± 232 µg/mL
IgG3 ± SD (IgG3; 5 μg IP days 3 and 4, day 11): 559 ± 162 µg/mL
IgG3 ± SD (IgG3; 5 μg IP days 3 and 4, day -1 baseline before treatment): 109 ± 44 µg/mL
IgG3 ± SD (IgG3; 10 μg IP days 3 and 4, day 7): 494 ± 267 µg/mL
IgG3 ± SD (IgG3; 10 μg IP days 3 and 4, day 8): 789 ± 264 µg/mL
IgG3 ± SD (IgG3; 10 μg IP days 3 and 4, day 9): 760 ± 340 µg/mL
IgG3 ± SD (IgG3; 10 μg IP days 3 and 4, day 11): 802 ± 216 µg/mL
IgG3 ± SD (IgG3; 10 μg IP days 3 and 4, day -1 baseline before treatment): 68 ± 2 µg/mL
IgG3 ± SD (IgG3; 20 μg IP days 3 and 4, day 7): 446 ± 266 µg/mL
IgG3 ± SD (IgG3; 20 μg IP days 3 and 4, day 8): 1075 ± 453 µg/mL
IgG3 ± SD (IgG3; 20 μg IP days 3 and 4, day 9): 1636 ± 275 µg/mL
IgG3 ± SD (IgG3; 20 μg IP days 3 and 4, day 11): 1288 ± 156 µg/mL
IgG3 ± SD (IgG3; 20 μg IP days 3 and 4, day -1 baseline before treatment): 77 ± 10 µg/mL
IgG3 ± SD (IgG3; 40 μg IP days 3 and 4, day 7): 236 ± 84 µg/mL
IgG3 ± SD (IgG3; 40 μg IP days 3 and 4, day 8): 639 ± 104 µg/mL
IgG3 ± SD (IgG3; 40 μg IP days 3 and 4, day 9): 1048 ± 167 µg/mL
IgG3 ± SD (IgG3; 40 μg IP days 3 and 4, day 11): 1044 ± 115 µg/mL
IgG3 ± SD (IgG3; 40 μg IP days 3 and 4, day -1 baseline before treatment): 68 ± 6.5 µg/mL
Serum IgE ± SD (IgE; 0.5 μg IP 4x daily days 3 and 4, day 7): 7813 ± 588 ng/mL
Serum IgE ± SD (IgE; 0.5 μg IP 4x daily days 3 and 4, day 8): 5699 ± 322 ng/mL
Serum IgE ± SD (IgE; 0.5 μg IP 4x daily days 3 and 4, day 9): 6097 ± 249 ng/mL
Serum IgE ± SD (IgE; 0.5 μg IP 4x daily days 3 and 4, day 11): 2049 ± 1201 ng/mL
Serum IgE ± SD (IgE; 0.5 μg IP 4x daily days 3 and 4, day -1 baseline before treatment): 839 ± 44 ng/mL
Serum IgE ± SD (IgE; 1.0 μg IP 3x daily days 3 and 4, day 7 (control 8850)): 4974 ± 1232 ng/mL
Serum IgE ± SD (IgE; 1.0 μg IP 3x daily days 3 and 4, day 8 (control 7557)): 4595 ± 663 ng/mL
Serum IgE ± SD (IgE; 1.0 μg IP 3x daily days 3 and 4, day 9 (control 6458)): 4602 ± 771 ng/mL
Serum IgE ± SD (IgE; 1.0 μg IP 3x daily days 3 and 4, day 11 (control 1466)): 1326 ± 241 ng/mL
Serum IgE ± SD (IgE; 1.0 μg IP 3x daily days 3 and 4, day -1 baseline before treatment): 808 ± 17 ng/mL
Serum IgE ± SD (IgE; 1.0 μg IP 4x daily days 3 and 4, day 7): 5549 ± 1044 ng/mL
Serum IgE ± SD (IgE; 1.0 μg IP 4x daily days 3 and 4, day 8): 3051 ± 475 ng/mL
Serum IgE ± SD (IgE; 1.0 μg IP 4x daily days 3 and 4, day 9): 4383 ± 832 ng/mL
Serum IgE ± SD (IgE; 1.0 μg IP 4x daily days 3 and 4, day 11): 1506 ± 794 ng/mL
Serum IgE ± SD (IgE; 1.0 μg IP 4x daily days 3 and 4, day -1 baseline before treatment): 1197 ± 272 ng/mL
Serum IgE ± SD (IgE; 2.0 μg IP 3x daily days 3 and 4, day 7): 5598 ± 1875 ng/mL
Serum IgE ± SD (IgE; 2.0 μg IP 3x daily days 3 and 4, day 8): 3057 ± 331 ng/mL
Serum IgE ± SD (IgE; 2.0 μg IP 3x daily days 3 and 4, day 9): 3644 ± 1179 ng/mL
Serum IgE ± SD (IgE; 2.0 μg IP 3x daily days 3 and 4, day 11): 1279 ± 377 ng/mL
Serum IgE ± SD (IgE; 2.0 μg IP 3x daily days 3 and 4, day -1 baseline before treatment): 800 ± 10 ng/mL
Serum IgE ± SD (IgE; 2.0 μg IP 4x daily days 3 and 4, day 7): 5483 ± 717 ng/mL
Serum IgE ± SD (IgE; 2.0 μg IP 4x daily days 3 and 4, day 8): 3236 ± 599 ng/mL
Mean IgE ± SD (IgE; day 8 (controls 14083-15890)): 5401 ± 883 ng/mL
Serum IgE ± SD (IgE; 2.0 μg IP 4x daily days 3 and 4, day 9): 3987 ± 401 ng/mL
Serum IgE ± SD (IgE; 2.0 μg IP 4x daily days 3 and 4, day 11): 1925 ± 410 ng/mL
Mean IgE ± SD (IgE; day -1 baseline before treatment): 1294 ± 232 ng/mL
Serum IgE ± SD (IgE; 2.0 μg IP 4x daily days 3 and 4, day -1 baseline before treatment): 1019 ± 206 ng/mL
reduction in IgE production (IgE; 2 μg IP, day 8): about 62%
IgE inhibition regardless of day of administration (IgE; 5 μg IP): regardless on what day the prostaglandin was administered IgE production (synthesis) was inhibited
duration of IgE suppression (IgE; 5 μg IP): IgE production was still suppressed even after 11 days
